Reference: ChEMBL document CHEMBL1143783, “In vitro biotransformations of the prostaglandin D2 (DP) antagonist MK-0524 and synthesis of metabolites” (Bioorg Med Chem Lett, 2007)

Test system: Plasma
Assay: Stability in rat plasma
Type: ADME, cell-free

| SMILES | Stability |
| --- | --- |
| CS(=O)(=O)c1cc(F)cc2c3c(n(Cc4ccc(Cl)cc4)c12)[C@@H](CC(=O)O)C[C@@H]3O | < 5% |
| CS(=O)(=O)c1cc(F)cc2c3c(n(Cc4ccc(Cl)cc4)c12)[C@@H](CC(=O)O)C[C@H]3O | < 5% |
